What was measured:
Assay in all cases: relative viability (nuclei count vs DMSO), 5 days (fraction); higher = more cells survive
[1] = compound: O=c1ncccn1[C@@H]1O[C@H](CO)[C@@H](O)[C@H]1O [Zebularine] + Cc1nc(Nc2ncc(C(=O)Nc3c(C)cccc3Cl)s2)cc(N2CCN(CCO)CC2)n1 [Dasatinib] (partner 0.075 µM)
Summary of the method: (§1)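 Relative viability divides the nuclei count in treated wells by that in vehicle wells. Lung cancer cell lines were seeded in 1536-well plates, dosed by pin tool the next day, and fixed and stained after 5 days in one step with final 0.05% Triton X-100, 1% formaldehyde and 1 ug/ml Hoechst. Dosing was a single drug or a fixed anchor-drug dose plus five library-drug doses (not always all listed) in √10 steps, and values are medians of duplicate plates imaged at 4×.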

[2] = compound: CC(C)CCN1c2nc(Nc3cc(F)c(O)c(F)c3)ncc2N(C)C(=O)C1C [BI-D1870] + Nc1ncn([C@H]2C[C@H](O)[C@@H](CO)O2)c(=O)n1 [Decitabine] (partner 2 µM)
Summary of the method: as §1

[3] = compound: O=c1ncccn1[C@@H]1O[C@H](CO)[C@@H](O)[C@H]1O [Zebularine] + CCNC(=O)c1noc(-c2cc(C(C)C)c(O)cc2O)c1-c1ccc(CN2CCOCC2)cc1 [Luminespib] (partner 0.01 µM)
Summary of the method: as §1

[4] = compound: CC(C)CCN1c2nc(Nc3cc(F)c(O)c(F)c3)ncc2N(C)C(=O)C1C [BI-D1870] + CC(C)C[C@H](NC(=O)[C@H](Cc1ccccc1)NC(=O)c1cnccn1)B(O)O [Bortezomib] (partner 0.002 µM)
Summary of the method: as §1

With NCI-H1666 the relative viability ([1]; first compound 1 µM) was 0.828, the relative viability ([1]; first compound 3.162 µM) was 0.817 and the relative viability ([1]; first compound 10 µM) was 0.714. It also gave a relative viability ([1]; first compound 31.62 µM) of 0.993, a relative viability ([1]; first compound 100 µM) of 0.689 and a relative viability ([2]; first compound 0.04 µM) of 0.711. It also gave a relative viability ([2]; first compound 0.1265 µM) of 0.701, a relative viability ([2]; first compound 0.4 µM) of 0.716 and a relative viability ([2]; first compound 1.265 µM) of 0.732. For the same cell line, the relative viability ([2]; first compound 4 µM) was 0.677, the relative viability ([3]; first compound 1 µM) was 1.01 and the relative viability ([3]; first compound 3.162 µM) was 0.932. It also gave a relative viability ([3]; first compound 10 µM) of 0.966, a relative viability ([3]; first compound 31.62 µM) of 1.01 and a relative viability ([3]; first compound 100 µM) of 0.751. The relative viability ([4]; first compound 0.04 µM) was 0.871, the relative viability ([4]; first compound 0.1265 µM) was 0.598 and the relative viability ([4]; first compound 0.4 µM) was 0.985. For the same cell line, the relative viability ([4]; first compound 1.265 µM) was 0.879 and the relative viability ([4]; first compound 4 µM) was 0.754.
In the case of NCI-H1734, the relative viability ([1]; first compound 1 µM) is reported as 0.546, the relative viability ([1]; first compound 3.162 µM) is reported as 0.486 and the relative viability ([1]; first compound 10 µM) is reported as 0.333. For the same cell line, the relative viability ([1]; first compound 31.62 µM) was 0.297, the relative viability ([1]; first compound 100 µM) was 0.281 and the relative viability ([2]; first compound 0.04 µM) was 0.482. The relative viability ([2]; first compound 0.1265 µM) was 0.448, the relative viability ([2]; first compound 0.4 µM) was 0.531 and the relative viability ([2]; first compound 1.265 µM) was 0.559. For the same cell line, the relative viability ([2]; first compound 4 µM) was 0.525, the relative viability ([3]; first compound 1 µM) was 0.197 and the relative viability ([3]; first compound 3.162 µM) was 0.171. It also gave a relative viability ([3]; first compound 10 µM) of 0.185, a relative viability ([3]; first compound 31.62 µM) of 0.217 and a relative viability ([3]; first compound 100 µM) of 0.178. The relative viability ([4]; first compound 0.04 µM) was 1.21, the relative viability ([4]; first compound 0.1265 µM) was 0.904 and the relative viability ([4]; first compound 0.4 µM) was 0.874. It also gave a relative viability ([4]; first compound 1.265 µM) of 0.893 and a relative viability ([4]; first compound 4 µM) of 0.602.
Cell Line NCI-H1755 has a relative viability ([1]; first compound 1 µM) of 0.494, a relative viability ([1]; first compound 3.162 µM) of 0.452 and a relative viability ([1]; first compound 10 µM) of 0.342. It also gave a relative viability ([1]; first compound 31.62 µM) of 0.49, a relative viability ([1]; first compound 100 µM) of 0.435 and a relative viability ([2]; first compound 0.04 µM) of 0.716. For the same cell line, the relative viability ([2]; first compound 0.1265 µM) was 0.685, the relative viability ([2]; first compound 0.4 µM) was 0.701 and the relative viability ([2]; first compound 1.265 µM) was 0.715. It also gave a relative viability ([2]; first compound 4 µM) of 0.692, a relative viability ([3]; first compound 1 µM) of 0.481 and a relative viability ([3]; first compound 3.162 µM) of 0.426. It also gave a relative viability ([3]; first compound 10 µM) of 0.39, a relative viability ([3]; first compound 31.62 µM) of 0.522 and a relative viability ([3]; first compound 100 µM) of 0.44. The relative viability ([4]; first compound 0.04 µM) was 1.07, the relative viability ([4]; first compound 0.1265 µM) was 0.921 and the relative viability ([4]; first compound 0.4 µM) was 0.949. For the same cell line, the relative viability ([4]; first compound 1.265 µM) was 1.09 and the relative viability ([4]; first compound 4 µM) was 0.937.
NCI-H1792 gave a relative viability ([1]; first compound 1 µM) of 0.71, a relative viability ([1]; first compound 3.162 µM) of 0.713 and a relative viability ([1]; first compound 10 µM) of 0.262. It also gave a relative viability ([1]; first compound 31.62 µM) of 0.421, a relative viability ([1]; first compound 100 µM) of 0.414 and a relative viability ([2]; first compound 0.04 µM) of 0.558. It also gave a relative viability ([2]; first compound 0.1265 µM) of 0.525, a relative viability ([2]; first compound 0.4 µM) of 0.596 and a relative viability ([2]; first compound 1.265 µM) of 0.851. It also gave a relative viability ([2]; first compound 4 µM) of 0.666, a relative viability ([3]; first compound 1 µM) of 0.667 and a relative viability ([3]; first compound 3.162 µM) of 0.4. The relative viability ([3]; first compound 10 µM) was 0.286, the relative viability ([3]; first compound 31.62 µM) was 0.266 and the relative viability ([3]; first compound 100 µM) was 0.254. The relative viability ([4]; first compound 0.04 µM) was 1.03, the relative viability ([4]; first compound 0.1265 µM) was 0.915 and the relative viability ([4]; first compound 0.4 µM) was 0.942. The relative viability ([4]; first compound 1.265 µM) was 1.13 and the relative viability ([4]; first compound 4 µM) was 0.841.
With NCI-H1915 the relative viability ([1]; first compound 1 µM) was 0.362, the relative viability ([1]; first compound 3.162 µM) was 0.328 and the relative viability ([1]; first compound 31.62 µM) was 0.374. For the same cell line, the relative viability ([1]; first compound 100 µM) was 0.287, the relative viability ([2]; first compound 0.04 µM) was 0.267 and the relative viability ([2]; first compound 0.1265 µM) was 0.247. It also gave a relative viability ([2]; first compound 0.4 µM) of 0.285, a relative viability ([2]; first compound 1.265 µM) of 0.234 and a relative viability ([2]; first compound 4 µM) of 0.271. It also gave a relative viability ([3]; first compound 1 µM) of 0.887, a relative viability ([3]; first compound 3.162 µM) of 0.818 and a relative viability ([3]; first compound 31.62 µM) of 0.772. For the same cell line, the relative viability ([3]; first compound 100 µM) was 0.322, the relative viability ([4]; first compound 0.04 µM) was 1.04 and the relative viability ([4]; first compound 0.1265 µM) was 0.951. The relative viability ([4]; first compound 0.4 µM) was 0.905, the relative viability ([4]; first compound 1.265 µM) was 1.03 and the relative viability ([4]; first compound 4 µM) was 0.879.
Work on NCI-H1975 yielded a relative viability ([1]; first compound 1 µM) of 0.328, a relative viability ([1]; first compound 3.162 µM) of 0.408 and a relative viability ([1]; first compound 10 µM) of 0.253. For the same cell line, the relative viability ([1]; first compound 31.62 µM) was 0.247, the relative viability ([1]; first compound 100 µM) was 0.173 and the relative viability ([2]; first compound 0.04 µM) was 0.436. It also gave a relative viability ([2]; first compound 0.1265 µM) of 0.348, a relative viability ([2]; first compound 0.4 µM) of 0.411 and a relative viability ([2]; first compound 1.265 µM) of 0.361. It also gave a relative viability ([2]; first compound 4 µM) of 0.368, a relative viability ([3]; first compound 1 µM) of 0.249 and a relative viability ([3]; first compound 3.162 µM) of 0.196. For the same cell line, the relative viability ([3]; first compound 10 µM) was 0.241, the relative viability ([3]; first compound 31.62 µM) was 0.199 and the relative viability ([3]; first compound 100 µM) was 0.14. For the same cell line, the relative viability ([4]; first compound 0.04 µM) was 0.487, the relative viability ([4]; first compound 0.1265 µM) was 0.44 and the relative viability ([4]; first compound 0.4 µM) was 0.386. For the same cell line, the relative viability ([4]; first compound 1.265 µM) was 0.339 and the relative viability ([4]; first compound 4 µM) was 0.175.
Work on NCI-H1993 yielded a relative viability ([1]; first compound 1 µM) of 0.658, a relative viability ([1]; first compound 3.162 µM) of 0.609 and a relative viability ([1]; first compound 10 µM) of 0.48. For the same cell line, the relative viability ([1]; first compound 31.62 µM) was 0.498, the relative viability ([1]; first compound 100 µM) was 0.496 and the relative viability ([2]; first compound 0.04 µM) was 0.634. For the same cell line, the relative viability ([2]; first compound 0.1265 µM) was 0.438, the relative viability ([2]; first compound 0.4 µM) was 0.668 and the relative viability ([2]; first compound 1.265 µM) was 0.647. It also gave a relative viability ([2]; first compound 4 µM) of 0.579, a relative viability ([3]; first compound 1 µM) of 0.908 and a relative viability ([3]; first compound 3.162 µM) of 0.687. The relative viability ([3]; first compound 10 µM) was 0.749, the relative viability ([3]; first compound 31.62 µM) was 0.815 and the relative viability ([3]; first compound 100 µM) was 0.847. The relative viability ([4]; first compound 0.04 µM) was 1.22, the relative viability ([4]; first compound 0.1265 µM) was 0.961 and the relative viability ([4]; first compound 0.4 µM) was 1.12. It also gave a relative viability ([4]; first compound 1.265 µM) of 1.31 and a relative viability ([4]; first compound 4 µM) of 0.981.
Cell Line NCI-H2009 has a relative viability ([1]; first compound 1 µM) of 0.371, a relative viability ([1]; first compound 3.162 µM) of 0.316 and a relative viability ([1]; first compound 10 µM) of 0.263. The relative viability ([1]; first compound 31.62 µM) was 0.309, the relative viability ([1]; first compound 100 µM) was 0.231 and the relative viability ([2]; first compound 0.04 µM) was 0.379. It also gave a relative viability ([2]; first compound 0.1265 µM) of 0.366, a relative viability ([2]; first compound 0.4 µM) of 0.394 and a relative viability ([2]; first compound 1.265 µM) of 0.397. For the same cell line, the relative viability ([2]; first compound 4 µM) was 0.3, the relative viability ([3]; first compound 1 µM) was 1.09 and the relative viability ([3]; first compound 3.162 µM) was 1.04. For the same cell line, the relative viability ([3]; first compound 10 µM) was 0.793, the relative viability ([3]; first compound 31.62 µM) was 0.859 and the relative viability ([3]; first compound 100 µM) was 0.3. It also gave a relative viability ([4]; first compound 0.04 µM) of 1.03, a relative viability ([4]; first compound 0.1265 µM) of 0.934 and a relative viability ([4]; first compound 0.4 µM) of 1.01. For the same cell line, the relative viability ([4]; first compound 1.265 µM) was 0.866 and the relative viability ([4]; first compound 4 µM) was 0.246.

From the supplement of paper PMC10307832
